Results taken from patent publication EP4810492A1, “NMT INHIBITOR, PREPARATION METHOD THEREFOR, AND USE THEREOF” (Nanjing Synnocare Pharmaceutical Technology Co., Ltd., priority 2023, dated 2025).
Read-outs that look alike come from different tables or passages of the source.

Assays:
MV-4-11 cells = assay: Anti-proliferative activity against MV-4-11 cells (cell viability chemiluminescence); type: cell-based; details: MV4-11, 72 h, MV-4-11 human monocytic leukemia cells, three days of exposure
Procedure: This study utilized a cell proliferation assay to analyze the cytotoxicity of MV-4-11 human monocytic leukemia cells after three days of exposure to NMT1 inhibitors. The MV-4-11 cell line was purchased from Nanjing Cobuilder Biotechnology Co., Ltd., and cultured in IMDM medium (Viva cell) in an incubator (Thermo) at 37 °C with 5% CO2. In this experiment, NMT1 inhibitors were dissolved in DMSO to obtain 600 µM stock solutions. Dose-response solutions were prepared with a top endpoint compound concentration of 3 µM, followed by three-fold serial dilutions in DMSO, totaling eight data points. The final concentration of DMSO was 0.5%.
MV-4-11 cells were seeded into a white 96-well plate, 80 µL of cell suspension per well, containing 6000 MV-4-11 cells. The cell plate was placed in the CO2 incubator for overnight culture. Then, 20 µL of NMT1 inhibitor solutions at different concentrations were added to the wells. The 96-well plate was placed back into the incubator for three days. Another cell plate was prepared, and the signal was read on the day of drug addition to serve as the maximum value (Max value in the equation below) for data analysis. To this cell plate, 25 µL of cell viability chemiluminescence detection reagent was added per well, followed by incubation at room temperature for 10 minutes to stabilize the luminescence signal. A multi-label analyzer was used for reading.
The raw data were converted into inhibition rates using the equation (Sample - Min) / (Max - Min) * 100%. The IC50 values were then determined by fitting a four-parameter curve (using the "log(inhibitor) vs. response - Variable slope" model in GraphPad Prism). Min: wells treated with 0.5% DMSO; Max: Day 0 wells. Table 1 provides the inhibitory activity of the compounds of the invention on MV-4-11 cell proliferation. Table 1: Compound Inhibitory Activity against NMT1 Enzyme (IC50) and Anti-proliferative Activity against MV-4-11 Cell line (IC50)

[1] = Plasma concentrations in mice following oral administration; details: for concentration at 1 h / concentration at 4 h / concentration at 8 h: ICR, mouse, po, 10 mg/kg
Text: This study evaluated the plasma concentrations of the compounds of the present invention in mice. ICR mice were procured from JOINN Laboratories (Suzhou) Co., Ltd. At the initiation of dosing, the animals were 6-8 weeks old and weighed 18-25 g. Mice were housed in transparent plastic cages (400 mm*240 mm*200 mm). The animal facility maintained a 12-hour light/12-hour dark cycle (lights on 07:00-19:00) using fluorescent lighting. The dark period may be intermittently interrupted as required for study-related activities. Ambient temperature and relative humidity were controlled within 20-26 °C and 40-70%, respectively. Animals were fed certified rodent chow and provided with drinking water filtered and sterilized through an ultrapure water system. All animals had ad libitum access to water throughout the study. Animals were fasted for at least 12 hours prior to dosing, and food was restored 4 hours post-dosing.
Prior to dosing, body weights were recorded, and healthy animals with similar weights were selected and randomly assigned to groups (n = 3 per group) based on body weight. The compounds were formulated in a 0.5% aqueous carboxymethyl cellulose (CMC) solution and administered orally at a single dose of 10 mg/kg. Blood samples (≥0.2 mL) were collected via venipuncture at 1 h and 4 h post-dose into EDTA-K2 anticoagulant tubes. Tubes were gently inverted to mix, immediately placed in an ice-water bath, and rapidly centrifuged at 4,000 rpm for 10 min at 4 °C to separate plasma. Plasma was stored at -70 °C until analysis.
Calibration curve and QC plasma samples: Working solutions for the calibration curve and QC samples were prepared using 80% methanol in water (Thermo Fisher) as the diluent. To prepare plasma calibration standards and QC samples, 5 µL of each working solution was added to 45 µL of blank plasma and mixed. To the prepared calibration and QC samples, 300 µL of internal standard solution (tolbutamide at 8 µg/mL in acetonitrile, Thermo Fisher) was added. […] The supernatant was collected and analyzed by liquid chromatography-tandem mass spectrometry (LC-MS/MS; AB Sciex API 5000).
Plasma sample pretreatment: After thawing at room temperature, 50 µL of each plasma sample was mixed with 300 µL of the internal standard solution (tolbutamide at 8 µg/mL in acetonitrile, Thermo Fisher). […] The supernatant was collected and analyzed by LC-MS/MS (AB Sciex API 5000).
Raw chromatograms, concentrations, and accuracy data were generated using Analyst software version 1.6.3.

[2] = Body weight of MV-4-11 xenograft model mice (tolerability); type: in vivo; details: female BALB/c nude mice, PO QD 30 mg/kg; for Body weight: Figure 1
Text: (§1) To evaluate the effect of the compounds of the present invention on tumor growth, an MV-4-11 human myelomonocytic leukemia xenograft mouse model was established. Female BALB/c nude mice were procured from Shanghai Jihui Laboratory Animal Care Co., Ltd. Upon arrival, the mice were 6-7 weeks old and weighed 18-22 g. They were housed in specific pathogen-free (SPF) individually ventilated cages (IVC) at a density of 2-6 mice per cage, with ad libitum access to standard diet and water. The housing environment was maintained at 20 - 26 °C (68 - 79 °F) with a relative humidity of 40-70%, under a 12-hour light/dark cycle (lights on from 05:00 to 17:00). The study commenced after a one-week acclimatization period.
(§2) Human myelomonocytic leukemia MV-4-11 cells (ATCC, CRL-9591) were maintained in suspension culture using IMDM medium (Gibco, 12440-053) supplemented with 10% heat-inactivated fetal bovine serum (FBS; Gibco, 10099-141C) at 37 °C in a 5% CO2 atmosphere. Cells were passaged 2-3 times per week. Upon reaching the exponential growth phase, cells were harvested, counted, and inoculated subcutaneously into the right dorsal flank of female nude mice. Each mouse received a 200 µL suspension containing 8 × 10^6 MV-4-11 cells (100 µL cell suspension + 100 µL Matrigel basement membrane matrix, Corning, 354234). Thirteen days post-inoculation, when subcutaneous tumor volumes reached 100 - 300 mm^3 , tumor-bearing mice with appropriate morphology and uniform size were selected. Using stratified randomization, mice were assigned to experimental groups (n = 5 per group). Oral administration (PO, once daily [QD]) was initiated on the day of grouping, with all compounds of the present invention dosed at 30 mg/kg. During the dosing period, tumor diameters were measured twice weekly using digital calipers, and body weights were recorded. In the posttreatment observation period, tumor diameters and body weights were measured once weekly. Tumor volume (V) was calculated using the formula: V = 0.5 *a * b^2 , where a represents the long diameter and b represents the short diameter of the tumor.
(§3) The anti-tumor efficacy of the compounds was evaluated using the tumor growth inhibition percentage (TGI%), calculated by the formula: TGI(%) = [1 - (TVi - TV0) / (TVVi - TVV0)] *100%, where TV0 and TVV0 represent the mean tumor volumes on day 0 for the treatment and control groups, respectively, and TVi and TVVi represent the mean tumor volumes on day i for the treatment and control groups, respectively. Data were plotted using GraphPad Prism software. Tumor volume and body weight data are expressed as mean ± SEM and plotted as a function of time.

NMT1 enzyme = biological target: T1, NMT1 enzyme (Homo sapiens, UniProt P30419); assay: Inhibitory activity on NMT1 enzyme catalysis (fluorescence intensity assay); type: biochemical
T1 sequence (P30419 1-496): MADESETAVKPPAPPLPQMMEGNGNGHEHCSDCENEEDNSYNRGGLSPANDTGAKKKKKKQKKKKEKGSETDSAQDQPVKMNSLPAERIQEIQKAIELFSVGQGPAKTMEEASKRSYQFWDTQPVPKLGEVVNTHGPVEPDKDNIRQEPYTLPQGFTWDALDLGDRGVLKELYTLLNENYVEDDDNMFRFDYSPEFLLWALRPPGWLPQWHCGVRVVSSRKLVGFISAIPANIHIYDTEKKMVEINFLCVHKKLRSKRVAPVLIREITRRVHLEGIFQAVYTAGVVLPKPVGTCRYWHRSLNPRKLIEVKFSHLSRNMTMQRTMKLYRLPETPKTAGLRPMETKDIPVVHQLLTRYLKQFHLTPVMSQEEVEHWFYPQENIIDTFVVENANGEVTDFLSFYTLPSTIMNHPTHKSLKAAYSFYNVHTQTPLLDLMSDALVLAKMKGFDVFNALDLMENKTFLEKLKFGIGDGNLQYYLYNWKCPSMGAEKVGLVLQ
Procedure: This study evaluated the ability of the compounds of the invention to inhibit NMT1 catalytic activity in vitro. […] The final concentration of the NMT1 enzyme was 6 nM, the final concentration of CPM (Reactive thiol fluorescence probe, Invitrogen, D346) was 1 µM, the final concentration of HSPP60 SRC was 20 µM, and the final concentration of DMSO was 0.5%.
Compounds were dissolved in DMSO to obtain 10 mM stock solutions. Dose-response solutions were prepared with a top endpoint compound concentration of 3 mM, followed by three-fold serial dilutions in DMSO, totaling ten data points. […] Then, 2.5 µL of the NMT1 enzyme working solution was added to the 384-well assay plate, followed by incubation at 25 °C for 10 minutes. Subsequently, 5 µL of the CPM and myristoyl-CoA working solution was added, the plate was centrifuged at 1000 rpm for 1 minute, and then 2.5 µL of the HSPP60 SRC working solution was added to initiate the reaction. The reaction was incubated at 25 °C for 45 minutes.
The IC50 curve of the compounds was fitted using the software XLfit 5.5.0 according to the nonlinear regression equation.

MV-4-11 tumors = assay: In vivo anti-tumor efficacy in MV-4-11 xenograft mouse model; details: female BALB/c nude mice, PO QD 30 mg/kg, Figure 2
Text: as §1, §2, §3

[3] = 6 nM NMT1 enzyme, 1.25 µM myristoyl-CoA, 20 µM HSPP60 SRC peptide, 45 minutes at 25 °C, read-out: NMT1 (IC50)

SMILES | IC50 (MV-4-11 cells) | concentration at 1 h [1] | concentration at 4 h [1] | concentration at 8 h [1] | Body weight [2] | IC50 (NMT1 enzyme; [3]) | Tumor volume / growth of MV-4-11 tumors (MV-4-11 tumors) | IC50 (MV-4-11 cells; Homo sapiens) | 1 h Concentration ([1]; ICR mice, oral single dose of 10 mg/kg in 0.5% CMC, 1 h post-dose, Mean ± SEM, n = 3) | 4 h Concentration ([1]; ICR mice, oral single dose of 10 mg/kg in 0.5% CMC, 4 h post-dose, Mean ± SEM, n = 3) | 8 h Concentration ([1]; ICR mice, oral single dose of 10 mg/kg in 0.5% CMC, 8 h post-dose, Mean ± SEM, n = 3) | IC50 (NMT1 enzyme) | Weight loss ([2]; later phase)
CCc1nn(C)c(C)c1NS(=O)(=O)c1c(Cl)cc(-c2ccc3sc4c(c3c2)CNCC4)cc1Cl [Compound 2] | 5.43 nM | 2890 ± 858 ng/mL | 1960 ± 190 ng/mL | 915 ± 97 ng/mL | slight decrease in body weight during the early phase of dosing, which subsequently returned to normal | 3.09 nM | significantly inhibited the growth of MV-4-11 tumors and induced tumor regression | – | – | – | – | – | –
Cc1c(NS(=O)(=O)c2c(Cl)cc(-c3ccc4sc5c(c4c3)CNCC5)cc2Cl)c(CC(C)C)nn1C [Compound 3] | 15 nM | 2407 ± 21 ng/mL | 1980 ± 417 ng/mL | 1140 ± 551 ng/mL | no weight loss throughout the study | 3.45 nM | significantly inhibited the growth of MV-4-11 tumors and induced tumor regression | – | – | – | – | – | –
Cc1c(NS(=O)(=O)c2c(Cl)cc(-c3ccc4sc5c(c4c3)CNCC5)cc2Cl)c(CC#N)nn1C [Compound 13] | – | – | – | – | no weight loss throughout the study | – | significantly inhibited the growth of MV-4-11 tumors and induced tumor regression | 19.3 nM | 1893 ± 196 ng/mL | 623 ± 109 ng/mL | 334 ± 83 ng/mL | 3.21 nM | –
Cc1c(NS(=O)(=O)c2c(Cl)cc(-c3ccc4oc5c(c4c3)CNCC5)cc2Cl)c(CC(C)C)nn1C [Compound 45] | 43.7 nM | 2970 ± 855 ng/mL | 3260 ± 876 ng/mL | 1960 ± 467 ng/mL | slight weight loss in the later phase | 5.38 nM | significantly inhibited the growth of MV-4-11 tumors and induced tumor regression | – | – | – | – | – | ≤ 10%
